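Step 1: Grow cells in 96-well plates. Step 2: Expose to compound for 48 hours at 5 concentrations. Step 3: Interpolate endpoints linearly; if unreached, use highest concentration. GI50 marks 50% less growth.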 Calls of active or inactive are those of the source. Rule as the data show it: active = GI50 up to about 1.1 µM and inactive = higher.
Tests used:
Assay in all cases: NCI tumour cell line growth inhibition, 48 h
SR = tested on: SR
KM12 = tested on: KM12
PC-3 = tested on: PC-3
MOLT-4 = tested on: MOLT-4
OVCAR-8 = tested on: OVCAR-8
OVCAR-3 = tested on: OVCAR-3
MDA-MB-231 = tested on: MDA-MB-231
HCC 2998 = tested on: HCC 2998
HCT-116 = tested on: HCT-116
RXF 393 = tested on: RXF 393
SK-OV-3 = tested on: SK-OV-3
RPMI-8226 = tested on: RPMI-8226
COLO 205 = tested on: COLO 205
LOX IMVI = tested on: LOX IMVI
SF-295 = tested on: SF-295
SK-MEL-5 = tested on: SK-MEL-5
EKVX = tested on: EKVX
NCI/ADR-RES = tested on: NCI/ADR-RES
OVCAR-5 = tested on: OVCAR-5
ACHN = tested on: ACHN

COC1/C=C/C=C(/C)Cc2cc(O)c(Cl)c(c2)N(C)C(=O)CC(OC(=O)C(C)C)C2(C)OC2C(C)C2CC1(O)NC(=O)O2 (stereo unspecified)
GI50 (SR): < 0.01 µM (active) | GI50 (KM12): < 0.01 µM (active) | GI50 (PC-3): < 0.01 µM (active) | GI50 (MOLT-4): < 0.01 µM (active) | GI50 (OVCAR-8): < 0.01 µM (active) | GI50 (OVCAR-3): < 0.01 µM (active) | GI50 (MDA-MB-231): < 0.01 µM (active) | GI50 (HCC 2998): < 0.01 µM (active) | GI50 (HCT-116): < 0.01 µM (active) | GI50 (RXF 393): < 0.01 µM (active) | GI50 (SK-OV-3): < 0.01 µM (active) | GI50 (RPMI-8226): < 0.01 µM (active) | GI50 (COLO 205): < 0.01 µM (active) | GI50 (LOX IMVI): < 0.01 µM (active) | GI50 (SF-295): < 0.01 µM (active) | GI50 (SK-MEL-5): < 0.01 µM (active)

c1ccc2cc3c(cc2c1)OP1(Oc2cccc4cccnc24)(O3)Oc2cc3ccccc3cc2O1
GI50 (EKVX): 3.37 µM (inactive) | GI50 (KM12): 5.31 µM (inactive) | GI50 (MOLT-4): 1.57 µM (inactive) | GI50 (OVCAR-8): 3.56 µM (inactive) | GI50 (NCI/ADR-RES): 1.28 µM (inactive) | GI50 (OVCAR-3): 1.58 µM (inactive) | GI50 (HCC 2998): 8.59 µM (inactive) | GI50 (HCT-116): 3.24 µM (inactive) | GI50 (RXF 393): 7.29 µM (inactive) | GI50 (OVCAR-5): 4.43 µM (inactive) | GI50 (SK-OV-3): 34.7 µM (inactive) | GI50 (RPMI-8226): 1.07 µM (active) | GI50 (COLO 205): 6.32 µM (inactive) | GI50 (LOX IMVI): 3.72 µM (inactive) | GI50 (SF-295): 4.67 µM (inactive) | GI50 (SK-MEL-5): 3.17 µM (inactive)

CC(C)C(=O)[C@@]1(C)SC[C@H]2CCN=C21
GI50 (SR): 56.8 µM (inactive) | GI50 (EKVX): > 100 µM (inactive) | GI50 (KM12): > 100 µM (inactive) | GI50 (MOLT-4): 42.9 µM (inactive) | GI50 (OVCAR-8): > 100 µM (inactive) | GI50 (NCI/ADR-RES): > 100 µM (inactive) | GI50 (OVCAR-3): > 100 µM (inactive) | GI50 (HCC 2998): > 100 µM (inactive) | GI50 (HCT-116): > 100 µM (inactive) | GI50 (RXF 393): 3.52 µM (inactive) | GI50 (OVCAR-5): > 100 µM (inactive) | GI50 (ACHN): > 100 µM (inactive) | GI50 (SK-OV-3): > 100 µM (inactive) | GI50 (RPMI-8226): > 100 µM (inactive) | GI50 (COLO 205): > 100 µM (inactive) | GI50 (LOX IMVI): > 100 µM (inactive) | GI50 (SF-295): > 100 µM (inactive) | GI50 (SK-MEL-5): > 100 µM (inactive)

Cc1ccc([S+]([O-])c2cccs2)cc1 (stereo unspecified)
GI50 (SR): > 100 µM (inactive) | GI50 (EKVX): > 100 µM (inactive) | GI50 (KM12): > 100 µM (inactive) | GI50 (PC-3): > 100 µM (inactive) | GI50 (MOLT-4): > 100 µM (inactive) | GI50 (OVCAR-8): > 100 µM (inactive) | GI50 (NCI/ADR-RES): > 100 µM (inactive) | GI50 (OVCAR-3): > 100 µM (inactive) | GI50 (HCT-116): > 100 µM (inactive) | GI50 (RXF 393): > 100 µM (inactive) | GI50 (OVCAR-5): > 100 µM (inactive) | GI50 (ACHN): > 100 µM (inactive) | GI50 (RPMI-8226): > 100 µM (inactive) | GI50 (COLO 205): > 100 µM (inactive) | GI50 (SF-295): > 100 µM (inactive)

CCOC(=O)c1cc(-c2ccc(OC)cc2)c([N+](=O)[O-])[nH]1
GI50 (SR): > 10 µM (inactive) | GI50 (EKVX): > 10 µM (inactive) | GI50 (KM12): > 10 µM (inactive) | GI50 (PC-3): > 10 µM (inactive) | GI50 (MOLT-4): > 10 µM (inactive) | GI50 (OVCAR-8): > 10 µM (inactive) | GI50 (OVCAR-3): > 10 µM (inactive) | GI50 (MDA-MB-231): 0.1 µM (active) | GI50 (HCC 2998): > 10 µM (inactive) | GI50 (HCT-116): > 10 µM (inactive) | GI50 (RXF 393): > 10 µM (inactive) | GI50 (OVCAR-5): > 10 µM (inactive) | GI50 (ACHN): > 10 µM (inactive) | GI50 (SK-OV-3): > 10 µM (inactive) | GI50 (COLO 205): > 10 µM (inactive) | GI50 (SF-295): > 10 µM (inactive) | GI50 (SK-MEL-5): 7.67 µM (inactive)

O=c1[nH]ncc2[nH]c3c4ccccc4ccc3c12
GI50 (SR): 31.3 µM (inactive) | GI50 (EKVX): 10.8 µM (inactive) | GI50 (KM12): 37.4 µM (inactive) | GI50 (PC-3): 39.2 µM (inactive) | GI50 (MOLT-4): 35.6 µM (inactive) | GI50 (OVCAR-8): 51.3 µM (inactive) | GI50 (NCI/ADR-RES): > 100 µM (inactive) | GI50 (OVCAR-3): 29.6 µM (inactive) | GI50 (HCC 2998): 60.1 µM (inactive) | GI50 (HCT-116): 42.2 µM (inactive) | GI50 (RXF 393): 46.2 µM (inactive) | GI50 (OVCAR-5): 39.9 µM (inactive) | GI50 (ACHN): 27.9 µM (inactive) | GI50 (SK-OV-3): 31.1 µM (inactive) | GI50 (RPMI-8226): 38.5 µM (inactive) | GI50 (COLO 205): 24.2 µM (inactive) | GI50 (LOX IMVI): 25.4 µM (inactive) | GI50 (SF-295): 22.6 µM (inactive) | GI50 (SK-MEL-5): 28.1 µM (inactive)
